Common to all, as to format: functional, cell-based
The test system of test [1] is SK-MEL-28. The test is described as follows: Cytotoxicity against human SK-MEL-28 cells.
For test [2], the system named is A549. The test is described as follows: Cytotoxicity against human A549 cells.
The test system of test [3] is HT-29. Put plainly: Cytotoxicity against human HT-29 cells.
Test [4] relates to P388. Put plainly: Cytotoxicity against mouse P388 cells.

Results on 4 molecules are retold here after ChEMBL document CHEMBL1158904, “New metabolites from the sponge Spongia agaricina” (J Nat Prod, 1998).

SMILES strings stand for the structures. Values after ≈ are worked out from the molar mass of the structure shown.

Consider `CC(C)[C@@H](C)/C=C/[C@@H](C)[C@H]1CC[C@@H](C2=C[C@@H]3O[C@@]34C[C@@H](O)CC[C@]4(C)C2=O)[C@]1(C)CC=O` [3-O-DEACETYLLUFFASTEROL B], for which the IC50 in test [1], in test [2], in test [3] and in test [4] was 1 µg/mL (≈ 2.26 µM) in each case.
On to `CC(=O)O[C@H]1C[C@H]2[C@]3(C)CC[C@H]4C(C)(C)CCC[C@]4(C)[C@H]3C[C@@H](O)[C@]2(C)[C@H]2OC(=O)C=C12`, for which the IC50 in test [1], in test [2], in test [3] and in test [4] was 5 µg/mL (≈ 11.2 µM) each time.
`CC(=O)O[C@@H]1C[C@H]2[C@]3(C)CC[C@H]4C(C)(C)CCC[C@]4(C)[C@H]3C[C@@H](O)[C@]2(C)c2occc21`: the IC50 in test [1], in test [2], in test [3] and in test [4] was 1 µg/mL (≈ 2.33 µM) in each case.
`C=C(CC[C@@H](C)[C@H]1CC[C@@H](C2=C[C@@H]3O[C@@]34C[C@@H](O)CC[C@]4(C)C2=O)[C@]1(C)CC=O)C(C)C`: the IC50 in test [1], in test [2], in test [3] and in test [4] was 1 µg/mL (≈ 2.26 µM) throughout.
